Source: PubChem BioAssay (NCI)
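Step 1: Grow cells in 96-well plates. Step 2: Expose to compound for 48 hours at 5 concentrations. Step 3: Interpolate endpoints linearly; if unreached, use highest concentration. Here, GI50 denotes the concentration required for 50% inhibition of growth. The concentration for full growth arrest is given as TGI.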

Columns and labels:
Experiment in all cases: growth of human tumour cells (NCI), 48 h
[1] = test system: COLO 205 colon
[2] = test system: HCT-15 colon
[3] = test system: M14 melanoma
[4] = test system: OVCAR-8 ovarian
[5] = test system: EKVX NSCLC
[6] = test system: OVCAR-4 ovarian
[7] = test system: IGROV1 ovarian
[8] = test system: HOP-62 NSCLC
[9] = test system: MALME-3M melanoma
[10] = test system: CCRF-CEM leukemia

Row | Compound | TGI [1] [µM] | TGI [2] [µM] | TGI [3] [µM] | TGI [4] [µM] | TGI [5] [µM] | TGI [6] [µM] | TGI [7] [µM] | TGI [8] [µM] | TGI [9] [µM] | GI50 [1] [µM] | GI50 [2] [µM] | GI50 [3] [µM] | GI50 [4] [µM] | GI50 [5] [µM] | GI50 [6] [µM] | GI50 [7] [µM] | GI50 [8] [µM] | GI50 [9] [µM] | TGI [10] [µM] | GI50 [10] [µM]
1 | Cc1ccc(SSCCCS(=O)O)cc1 | 52.9 | > 100 | 96.8 | 50 | 88.5 | > 100 | 27.4 | 78.4 | > 100 | – | – | – | – | – | – | – | – | – | – | –
2 | COC(=O)/C(C#N)=C\N1CCN(C(=O)c2ccco2)C1=S | > 100 | > 100 | 19.9 | 56.2 | 28.5 | 58.8 | 26.4 | 46.8 | 63.7 | 31.7 | 2.95 | 6.35 | 15.5 | 10.2 | 23.3 | 6.16 | 22.3 | 32.7 | – | –
3 | CC1=C(C(=O)Nc2cccc(C(F)(F)F)c2)C(c2ccc(O)cc2)C(C(=O)Nc2cccc(C(F)(F)F)c2)=C(C)N1 | 27 | – | 35.5 | 76.6 | 58.6 | 86.6 | 89.2 | 45.5 | 64.4 | – | – | – | – | – | – | – | – | – | 66.4 | –
4 | Cc1ccc2nc3c(Cl)cc(=O)cc-3sc2c1 | 36.3 | 32 | 60.5 | 43.4 | 39.1 | 30.7 | 38.1 | – | 75.9 | – | – | – | – | – | – | – | – | – | 19.8 | –
5 | O=S(=O)(NCCNc1nccc(-c2c(-c3cccc(O)c3)nc3sccn23)n1)c1ccc(F)cc1 | 11.5 | 55.4 | 16.6 | 39.3 | – | 41.3 | 18.1 | 56.5 | – | 0.779 | 10.8 | 0.568 | 4.61 | – | 6.5 | 3.53 | 13.8 | – | > 100 | 2.8
6 | O=C(Nc1cccc(Cl)c1)Nc1cccc(Cl)c1 | – | – | > 100 | > 100 | – | > 100 | > 100 | > 88.8 | > 100 | – | – | > 100 | 15.3 | – | 1.99 | 37.8 | 21.9 | > 100 | – | –
7 | CC(C)(O)[C@@H]1CCC(C)([C@H]2[C@@H](O)CC3(C)C4CC(OC5OC(CO)C(O)C(O)C5O)C5C(C)(C)[C@@H](OC6OCC(O)C(O)C6O)CC[C@@]56C[C@@]46CC[C@]23C)O1 (some centres undefined) | > 100 | > 100 | > 100 | > 100 | > 100 | > 100 | > 100 | – | > 100 | – | – | – | – | – | – | – | – | – | > 100 | –
8 | CC(=O)OC1C=CC2CCN3C(=O)c4cc5c(cc4[C@H]1C23)OCO5 (some centres undefined) | > 100 | > 100 | > 100 | > 100 | > 100 | – | > 100 | > 100 | > 100 | – | – | – | – | – | – | – | – | – | > 100 | –
9 | COc1ccc(Nc2c3ccccc3nc3c2c2ccccc2n3C)cc1 | > 100 | > 100 | – | > 100 | 60.3 | – | > 100 | > 100 | – | 15.2 | 11.1 | – | 57.5 | 7.91 | – | 15.3 | > 100 | – | – | –
10 | Nc1nc(-c2ccccc2)c(-c2ccccc2)c(-c2nc(N)nc(-c3ccccc3)c2-c2ccccc2)n1 | > 100 | > 100 | > 100 | > 100 | > 100 | > 100 | > 100 | > 100 | > 100 | – | – | – | – | – | – | – | – | – | – | –
11 | COc1ccc(/C=C2\N=C(c3ccccc3)OC2=O)c(OCc2ccccc2)c1 | > 100 | – | > 100 | 72 | > 100 | 47.7 | 64.4 | 45.2 | > 100 | – | – | – | – | – | – | – | – | – | 50.2 | –
12 | O=[N+]([O-])c1cccc(C2SCc3nc4ccccc4n32)c1 (centres undefined) | > 100 | – | – | > 100 | > 100 | > 100 | > 100 | > 100 | > 100 | – | – | – | – | – | – | – | – | – | > 100 | –
13 | COc1cc(/C=C/C(=O)C(=Cc2ccc(F)c(F)c2)C(=O)/C=C/c2ccc(O)c(OC)c2)ccc1O | 4.74 | 10.1 | – | 11.1 | 18.3 | 10.7 | 67.9 | 9.38 | 37.3 | 2.26 | 2.82 | – | 2.93 | 4.61 | 2.96 | 3.82 | 2.87 | 5.61 | > 100 | 2.46
14 | CN(C)CC(C(=O)c1ccccc1)c1ccccc1 (centres undefined) | 3.33 | 2.54 | 2.92 | 6.56 | 27.1 | – | 5.47 | 23.5 | 3.62 | 1.77 | 1.11 | 1.46 | 1.99 | 10.2 | – | 2.2 | 11.3 | 1.69 | 10.9 | 0.755
15 | Cc1cc2c3ccccc3n(C)c2c2c1C(=O)c1ccccc1C2=O | 56.1 | – | 40.9 | 76.2 | > 100 | 51.4 | 54.3 | 53.6 | 35.4 | – | – | – | – | – | – | – | – | – | 25.5 | –
16 | O=C1C=C2S[C@H]3C[C@]2(C=C1Br)c1c(c(O)c2c4c1=NCCC=4C=N2)N3 | 0.21 | 1.99 | 2.01 | 1.56 | 3.19 | 0.985 | 2.92 | – | 0.261 | – | – | – | – | – | – | – | – | – | – | –
17 | O=C1NC(=NCc2cccs2)SC1Cc1ccc2ncccc2c1 (centres undefined) | > 25 | > 25 | > 25 | > 25 | – | > 25 | > 25 | > 25 | > 25 | 10.2 | 11.4 | 11 | > 25 | – | > 25 | > 16.5 | 20.1 | 24.7 | > 25 | 11.7
18 | C/C=C/C=N/N(c1nnc(-c2ccccc2)c(-c2ccccc2)n1)S(=O)(=O)c1ccc(C)cc1 | 35.7 | 18.6 | 15.8 | 20.7 | 31.9 | 28.2 | 29.3 | – | 22.8 | – | – | – | – | – | – | – | – | – | 9.21 | –
